Results from US8569484B2, “Heterocyclic urea derivatives and methods of use thereof” (Astrazeneca AB, priority 2009, dated 2013).
Converted amounts (≈) assume the structure as drawn.

Target: S. aureus GyrB ATPase (Staphylococcus aureus, UniProt P0A0K8)
Experiment: S. aureus GyrB ATPase inhibition (ammonium molybdate/malachite green phosphate detection)
Format: biochemical
Settings: 1 μM compound; S. aureus GyrB ATPase
Description: S. aureus GyrB ATPase Inhibition Activity: Compounds may be tested for inhibition of S. aureus GyrB ATPase activity using an ammonium molybdate/malachite green-based phosphate detection assay (Lanzetta, P. A., L. J. Alvarez, P. S. Reinach, and O. A. Candia, 1979, 100: 95-97). Assays can be performed in multiwell plates in 30 μl reactions containing: 50 mM Hepes buffer pH 7.5, 75 mM ammonium acetate, 8.0 mM magnesium chloride, 0.5 mM ethylenediaminetetraacetic acid, 5% glycerol, 1.0 mM 1,4-Dithio-DL-threitol, 200 nM bovine serum albumin, 1.0 μg/ml sheared salmon sperm DNA, 250 pM E. coli GyrA, 250 pM S. aureus GyrB, 250 μM ATP, and compound in dimethylsulfoxide. Reactions can be quenched with 30 μl of ammonium molybdate/malachite green detection reagent containing 1.2 mM malachite green hydrochloride, 8.5 mM ammonium molybdate tetrahydrate, and 1 M hydrochloric acid. Plates can be read in an absorbance plate reader at 650 nm and percent inhibition values can be calculated using dimethylsulfoxide (2%)-containing reactions as 0% inhibition and EDTA-containing ([…]) reactions as 100% inhibition controls. An IC50 measurement of compound potency for each compound can be determined from reactions performed in the presence of 10 different compound concentrations.

S. aureus GyrB ATPase, sequence (P0AES4 whole entry): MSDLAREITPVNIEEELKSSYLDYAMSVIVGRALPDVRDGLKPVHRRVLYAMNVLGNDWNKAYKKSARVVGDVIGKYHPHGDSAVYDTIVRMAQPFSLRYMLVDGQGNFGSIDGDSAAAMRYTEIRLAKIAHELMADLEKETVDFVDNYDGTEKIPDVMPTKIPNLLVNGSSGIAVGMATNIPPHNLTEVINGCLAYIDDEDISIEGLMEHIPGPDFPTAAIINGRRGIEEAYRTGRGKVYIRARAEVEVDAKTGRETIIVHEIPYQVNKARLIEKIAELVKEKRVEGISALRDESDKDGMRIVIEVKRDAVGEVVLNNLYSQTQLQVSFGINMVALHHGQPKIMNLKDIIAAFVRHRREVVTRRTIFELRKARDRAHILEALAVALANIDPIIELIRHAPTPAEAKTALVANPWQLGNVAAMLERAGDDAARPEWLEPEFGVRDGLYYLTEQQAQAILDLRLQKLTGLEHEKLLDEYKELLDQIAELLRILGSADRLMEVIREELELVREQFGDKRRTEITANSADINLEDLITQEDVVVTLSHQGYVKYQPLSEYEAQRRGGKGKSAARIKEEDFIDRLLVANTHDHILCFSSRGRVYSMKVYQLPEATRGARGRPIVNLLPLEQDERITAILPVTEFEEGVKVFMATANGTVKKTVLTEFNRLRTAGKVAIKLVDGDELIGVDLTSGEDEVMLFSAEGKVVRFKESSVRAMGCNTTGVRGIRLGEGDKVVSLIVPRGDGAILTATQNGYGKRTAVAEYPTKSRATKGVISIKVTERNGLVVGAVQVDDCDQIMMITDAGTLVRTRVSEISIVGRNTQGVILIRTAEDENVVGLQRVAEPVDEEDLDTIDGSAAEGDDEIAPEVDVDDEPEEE
S. aureus GyrB ATPase, sequence (P0A0K8 whole entry): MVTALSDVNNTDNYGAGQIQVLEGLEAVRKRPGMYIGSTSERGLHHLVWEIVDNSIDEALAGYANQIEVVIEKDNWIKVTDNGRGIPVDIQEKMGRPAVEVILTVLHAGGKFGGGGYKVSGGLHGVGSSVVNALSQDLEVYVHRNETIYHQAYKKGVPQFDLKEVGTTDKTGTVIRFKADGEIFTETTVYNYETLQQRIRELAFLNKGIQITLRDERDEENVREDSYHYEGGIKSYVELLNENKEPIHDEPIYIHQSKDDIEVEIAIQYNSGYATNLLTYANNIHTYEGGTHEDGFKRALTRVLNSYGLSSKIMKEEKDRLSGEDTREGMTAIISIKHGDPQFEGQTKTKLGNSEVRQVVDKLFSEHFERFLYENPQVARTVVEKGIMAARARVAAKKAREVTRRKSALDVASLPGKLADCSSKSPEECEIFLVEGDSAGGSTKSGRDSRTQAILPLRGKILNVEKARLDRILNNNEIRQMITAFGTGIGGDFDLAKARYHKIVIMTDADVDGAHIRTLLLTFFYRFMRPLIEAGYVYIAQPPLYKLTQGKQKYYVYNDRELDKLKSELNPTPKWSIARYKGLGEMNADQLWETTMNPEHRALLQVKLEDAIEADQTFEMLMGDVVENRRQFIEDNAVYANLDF

SMILES	Percent Inhibition (1 μM) [%]
CCNC(=O)Nc1cc(-c2nc(C(F)(F)F)cs2)c(-c2cc3c(=O)c(C(=O)O)cn([C@H]4CCCN(CCN(CC)CC)C4)c3cn2)cn1 [Example 52, (5)-1-(1-(2-(diethylamino)ethyl)piperidin-3-yl)-6-(6-(3-ethylureido)-4-(4-(trifluoromethyl)thiazol-2-yl)pyridin-3-yl)-4-oxo-1,4-dihydro-1,7-naphthyridine-3-carboxylic acid]	105

Same assay, conditions: 1 μM compound; S. aureus GyrB ATPase; read-out: Percent Inhibition (1 μM)

SMILES	inhibition at 1 µM [%]
CCNC(=O)Nc1cc(-c2nc(C(F)(F)F)cs2)c(-c2cnc3c(c2)c(=O)c(C(=O)O)cn3CCO)cn1 [Example 10, 6-{6-[(ethylcarbamoyl)amino]-4-[4-(trifluoromethyl)-1,3-thiazol-2-yl]pyridin-3-yl}-1-(2-hydroxyethyl)-4-oxo-1,4-dihydro-1,8-naphthyridine-3-carboxylic acid]	93
CCNC(=O)Nc1cc(-c2nc(C(F)(F)F)cs2)c(-c2cc3c(=O)c(C(=O)O)cn([C@H](CO)CC(C)C)c3cn2)cn1 [Example 45]	107
CCNC(=O)Nc1cc(-c2nc(C(F)(F)F)cs2)c(-c2cc3c(=O)c(C(=O)O)cn(CCOC)c3cn2)cn1 [Example 46]	106
CCNC(=O)Nc1cc(-c2nc(C(F)(F)F)cs2)c(-c2cc3c(=O)c(C(=O)O)cn(CCN(C)C)c3cn2)cn1 [Example 47]	98
CCNC(=O)Nc1cc(-c2nc(C(F)(F)F)cs2)c(-c2cc3c(=O)c(C(=O)O)cn([C@H]4CCCN(CCN5CCOCC5)C4)c3cn2)cn1 [Example 48]	101
CCNC(=O)Nc1cc(-c2nc(C(F)(F)F)cs2)c(-c2cc3c(=O)c(C(=O)O)cn([C@@H]4CCCN(CCN5CCOCC5)C4)c3cn2)cn1 [Example 49]	98
CCNC(=O)Nc1cc(-c2nc(C(F)(F)F)cs2)c(-c2cc3c(=O)c(C(=O)O)cn(Cc4cn(C)cn4)c3cn2)cn1 [Example 50]	99
CCNC(=O)Nc1cc(-c2nc(C(F)(F)F)cs2)c(-c2cc3c(=O)c(C(=O)O)cn(Cc4cnn(C)c4)c3cn2)cn1 [Example 51, 6-(6-(3-ethylureido)-4-(4-(trifluoromethyl)thiazol-2-yl)pyridin-3-yl)-1-((1-methyl-1H-pyrazol-4-yl)methyl)-4-oxo-1,4-dihydro-1,7-naphthyridine-3-carboxylic acid]	102
CCNC(=O)Nc1cc(-c2nc(C(F)(F)F)cs2)c(-c2cc3c(=O)c(C(=O)O)cn([C@@H]4CCCN(CCN(CC)CC)C4)c3cn2)cn1 [Example 53]	103
CCNC(=O)Nc1cc(-c2nc(C(F)(F)F)cs2)c(-c2cnc3c(c2)c(=O)c(C(=O)O)cn3[C@@H]2CCCN(CCN(CC)CC)C2)cn1 [Example 54]	106
CCNC(=O)Nc1cc(-c2nc(C(F)(F)F)cs2)c(-c2cnc3c(c2)c(=O)c(C(=O)O)cn3C(COC)COC)cn1 [Example 55]	103
CCNC(=O)Nc1cc(-c2nc(C(F)(F)F)cs2)c(-c2cnc3c(c2)c(=O)c(C(=O)O)cn3CCN2CCOCC2)cn1 [Example 56]	101
CCNC(=O)Nc1cc(-c2nc(C(F)(F)F)cs2)c(-c2cnc3c(c2)c(=O)c(C(=O)O)cn3C2CN(C)C2)cn1 [Example 57]	107
CCNC(=O)Nc1cc(-c2nc(C(F)(F)F)cs2)c(-c2cc3c(=O)c(C(=O)O)cn(C[C@@H]4CCCN4CC)c3nc2N2CCN(C)CC2)cn1 [Example 58]	104
CCNC(=O)Nc1cc(-c2nc(C(F)(F)F)cs2)c(-c2cc3c(=O)c(C(=O)O)cn([C@H](CO)C(C)(C)C)c3nc2N2CCN(C)CC2)cn1 [Example 59, (S)-6-(6-(3-ethylureido)-4-(4-(trifluoromethyl)thiazol-2-yl)pyridin-3-yl)-1-(1-hydroxy-3,3-dimethylbutan-2-yl)-7-(4-methylpiperazin-1-yl)-4-oxo-1,4-dihydro-1,8-naphthyridine-3-carboxylic acid]	108
CCNC(=O)Nc1cc(-c2nc(C(F)(F)F)cs2)c(-c2cc3c(=O)c(C(=O)O)cn(CCN4CCN(C)CC4)c3nc2N2CC[C@@H](CN)C2)cn1 [Example 60]	101
CCNC(=O)Nc1cc(-c2nc(C(F)(F)F)cs2)c(-c2cc3c(=O)c(C(=O)O)cn(CCN4CCN(C)CC4)c3nc2N2CC[C@H](N)C2)cn1 [Example 61]	103

SMILES	inhibition at 1 µM [%]
CCNC(=O)Nc1cc(-c2nc(-c3ccccc3)cs2)c(-c2cc3c(=O)c(C(=O)O)cn([C@H]4CCCN(CCN5CCOCC5)C4)c3cn2)cn1 [Example 63]	105
CCNC(=O)Nc1cc(-c2nc(-c3ccccc3)cs2)c(-c2cc3c(=O)c(C(=O)O)cn([C@@H]4CCCN(CCN5CCOCC5)C4)c3cn2)cn1 [Example 64]	100
CCNC(=O)Nc1cc(-c2nc(-c3ccccc3)cs2)c(-c2cc3c(=O)c(C(=O)O)cn(Cc4cn(C)cn4)c3cn2)cn1 [Example 65]	98
CCNC(=O)Nc1cc(-c2nc(C(F)(F)F)cs2)c(-c2cc3c(=O)c(C(=O)O)cn(C(C)(C)C)c3cn2)cn1 [Example 66]	106
CCNC(=O)Nc1cc(-c2nc(C(F)(F)F)cs2)c(-c2cc3c(=O)c(C(=O)O)cn(CCN4CCCC4)c3cn2)cn1 [Example 67]	93
CCNC(=O)Nc1cc(-c2nc(C(F)(F)F)cs2)c(-c2cc3c(=O)c(C(=O)O)cn(CC)c3cn2)cn1 [Example 68]	110
CCNC(=O)Nc1cc(-c2nc(C(F)(F)F)cs2)c(-c2cc3c(=O)c(C(=O)O)cn(CCN4CCOCC4)c3cn2)cn1 [Example 69]	103
CCNC(=O)Nc1cc(-c2nc(C(F)(F)F)cs2)c(-c2cc3c(=O)c(C(=O)O)cn(C4CN(C)C4)c3cn2)cn1 [Example 70]	102
CCNC(=O)Nc1cc(-c2nc(C(F)(F)F)cs2)c(-c2cc3c(=O)c(C(=O)O)cn([C@H](CO)C(C)(C)C)c3cn2)cn1 [Example 71]	103
CCNC(=O)Nc1cc(-c2nc(C(F)(F)F)cs2)c(-c2cc3c(=O)c(C(=O)O)cn(Cc4ccncc4)c3cn2)cn1 [Example 72]	105
CCCN1CC[C@H](Cn2cc(C(=O)O)c(=O)c3cc(-c4cnc(NC(=O)NCC)cc4-c4nc(C(F)(F)F)cs4)ncc32)C1 [Example 73]	108
CCNC(=O)Nc1cc(-c2nc(C(F)(F)F)cs2)c(-c2cc3c(=O)c(C(=O)O)cn(C[C@@H]4CCN(CC)C4)c3cn2)cn1 [Example 74]	100
CCNC(=O)Nc1cc(-c2nc(-c3cnn(C)c3)cs2)c(-c2cc3c(=O)c(C(=O)O)cn(C4CC4)c3cn2)cn1 [Example 75]	108
CCNC(=O)Nc1cc(-c2nc(-c3cnn(C)c3)cs2)c(-c2cc3c(=O)c(C(=O)O)cn(Cc4cn(C)cn4)c3cn2)cn1 [Example 76, 6-(6-(3-ethylureido)-4-(4-(1-methyl-1H-pyrazol-4-yl)thiazol-2-yl)pyridin-3-yl)-1-((1-methyl-1H-imidazol-4-yl)methyl)-4-oxo-1,4-dihydro-1,7-naphthyridine-3-carboxylic acid]	109
CCNC(=O)Nc1cc(-c2nc(C(F)(F)F)cs2)c(-c2cc3c(=O)c(C(=O)O)cn(CC)c3nc2N2CCC(N)C2)cn1 (centres unmarked) [Example 77]	105
CCNC(=O)Nc1cc(-c2nc(C(F)(F)F)cs2)c(-c2cc3c(=O)c(C(=O)O)cn([C@H](CO)C(C)(C)C)c3nc2N2CCC(N)C2)cn1 (stereo partly drawn) [Example 78, 7-(3-aminopyrrolidin-1-yl)-6-(6-(3-ethylureido)-4-(4-(trifluoromethyl)thiazol-2-yl)pyridin-3-yl)-1-((S)-1-hydroxy-3,3-dimethylbutan-2-yl)-4-oxo-1,4-dihydro-1,8-naphthyridine-3-carboxylic acid]	98

Test system: S. aureus
Experiment: Bacterial susceptibility testing in liquid media (MIC)
Format: cell-based
Settings: Staphylococcus aureus; against S. aureus; lowest concentration able to reduce growth by 80% or more
Excerpt: Compounds may be tested for antimicrobial activity by susceptibility testing in liquid media. Compounds may be dissolved in dimethylsulfoxide and tested in 10 doubling dilutions in the susceptibility assays. The organisms used in the assay may be grown overnight on suitable agar media and then suspended in a liquid medium appropriate for the growth of the organism. The suspension can be a 0.5 McFarland and a further 1 in 10 dilution can be made into the same liquid medium to prepare the final organism suspension in 100 μL. Plates can be incubated under appropriate conditions at 37° C. for 24 hrs prior to reading. The Minimum Inhibitory Concentration (MIC) may be determined as the lowest drug concentration able to reduce growth by 80% or more.

SMILES	MIC [µM]
CCNC(=O)Nc1cc(-c2nc(C(F)(F)F)cs2)c(-c2cnc3c(c2)c(=O)c(C(=O)O)cn3CCO)cn1 [Example 10, 6-{6-[(ethylcarbamoyl)amino]-4-[4-(trifluoromethyl)-1,3-thiazol-2-yl]pyridin-3-yl}-1-(2-hydroxyethyl)-4-oxo-1,4-dihydro-1,8-naphthyridine-3-carboxylic acid]	0.55 (≈ 0.302 µg/mL)
